Molecular target: T1, β2-receptor (Cavia porcellus, UniProt Q8K4Z4)
T1 construct: Trachea was removed and cut from thyroid cartilage to trachea crotch; from tissue; host or cells: guinea pig (Hartley) isolated trachea strips
Test: Antagonistic effect on isolated trachea strip constriction induced by histamine (study of effect on β2-receptor)
Assay type: cell-based
Conditions: isolated guinea pig (Hartley) trachea strips contracted with histamine to 50% of maximum; tested compounds formulated as 10^−6 M solution; 37° C.
From the text: Study of the Effect of Compounds of the Invention on β2-Receptor
Sample: All tested compounds were formulated into solution of 10^−6 M.
The antagonistic effects of the compounds of the present invention on the trachea constriction induced by histamine.
Guinea pigs were sacrificed and cut through the skin and subcutaneous tissue on ventral side of neck. Trachea was removed and cut from thyroid cartilage to trachea crotch, then placed into an ice cooled oxygenated Kebs-Hensleits solution. The connective tissues around the trachea were cut off. The trachea was held by a nipper on one end and cut into trachea strips (2 cm×3 mm) in helix. The samples were then put into a bath containing 20 ml of Kebs-Hensleits solution. The lower end of the trachea strips was fastened to a vent hook and the upper end was connected to a strain gauge transducer, thus the tension change was measured by the recorder. The bath was controlled at 37° C. and oxygen gas was continuously supplied. The preload of the samples was 2 g. The samples were equilibrated in the nutrient solution for 1 hour and the solution was refreshed every 20 min.
When the tension of the samples reached a stable value, various concentrations (1×10^−10˜3×10^−4 mol·L^−1) of histamine were added to the bath. A dose-effect curve was established to determine the concentration of histamine when 50% of the maximum contraction was reached. After refreshing the solution and balancing the samples for 60 min, an amount of histamine was added to the bath. When the tension of trachea strips reached 50% of the maximum contraction, the tested compounds were added to bath, and the antagonistic effect (represented as relaxing rate) of the compounds on the isolated trachea constriction induced by histamine was calculated as below:
Relaxing rate (%)=[(Contraction intensity after histamine addition−Contraction intensity after tested compounds addition)/[…]]×100%

T1 sequence (Q8K4Z4 whole entry): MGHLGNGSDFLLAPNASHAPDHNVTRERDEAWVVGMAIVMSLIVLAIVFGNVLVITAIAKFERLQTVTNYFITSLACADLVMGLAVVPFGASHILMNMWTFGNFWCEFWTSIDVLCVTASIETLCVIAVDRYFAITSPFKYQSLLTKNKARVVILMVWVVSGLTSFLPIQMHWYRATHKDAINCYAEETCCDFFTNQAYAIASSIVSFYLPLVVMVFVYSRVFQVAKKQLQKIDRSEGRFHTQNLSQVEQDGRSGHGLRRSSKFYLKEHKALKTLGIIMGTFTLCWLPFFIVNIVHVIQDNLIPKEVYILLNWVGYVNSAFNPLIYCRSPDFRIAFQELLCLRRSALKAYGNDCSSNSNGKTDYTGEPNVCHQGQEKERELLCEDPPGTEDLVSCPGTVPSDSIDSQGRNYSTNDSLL

SMILES	Relaxing rate (%)
CC(C)(C)NC(CO)c1ccc(N)c(C(F)(F)F)c1.Cl (stereo not drawn) [drawing 13]	55.3%
CC(C)(C)NC(CO)c1cc(Cl)c(N)c(C#N)c1.Cl (stereo not drawn) [drawing 6]	100.0%
CC(C)(C)NC(CO)c1ccc(N)c(C(F)(F)F)c1.Cl (stereo not drawn) [drawing 14]	88.3%
CC(C)(C)NC(CO)c1ccc(N)c(C(F)(F)F)c1.Cl (stereo not drawn) [drawing 12]	70.2%

Other lines, results leading:

Relaxing rate (%)	SMILES
78.1%	CC(C)(C)NC(CO)c1cc(Cl)c(N)c(C#N)c1.Cl (stereo not drawn) [drawing 7]
112.1%	CC(C)(C)NC(CO)c1cc(Cl)c(N)c(C#N)c1.Cl (stereo not drawn) [drawing 8]

— patent US20100022656A1, “OPTICALLY ACTIVE PHENYLETHANOL AMINES AND PREPARING METHOD THEREOF” (SHENYANG PHARMACEUTICAL UNIVERSITY, priority 2006, published 2010)
